The subject of data set [1] is cerebellar granular cells. Nature of the data set: Excitotoxicity protection in primary cerebellar granular cells (MTT test). The data set is classed as cell-based, rat. The conditions noted are these: etazolate three hours before toxic agents, 6-hour incubation. The procedure:
In this example, cerebellar granular neurons, cortical neurons and ventral spinal cord cells from rats were cultured according to methods known to those skilled in the art. Seven-day-old Wistar rats were decapitated and brains were dissected. The meninges were removed and the tissue was then cut into small pieces and trypsinized for 15 minutes at 37° C. Cells were dissociated by trituration, then placed in culture at a density of 300,000 cells per cm^2 in Eagle basic medium supplemented with 10% fetal calf serum and 2 mM glutamine. The next day, 10 μM ARA-C, an antimitotic agent, was added to prevent proliferation of glial cells. The cells were treated on day 9 of culture with the inhibitor compound etazolate, three hours before adding the toxic agents 50 μM kainate or 100 μM N-methyl-D-aspartate in the presence of 10 μM D-serine. Immediately before adding the toxic agents, 8-bromo-cAMP was added. All treatments were done at least in duplicate and in at least two different cultures. After a 6-hour incubation, toxicity was measured by the MTT test. The results were normalized to the untreated mean and analyzed statistically with a Wilcoxon test. The level of significance was p≦0.05. Toxicity was measured with the MTT test. […] Absorbance at 550 nm was measured and the percentage viability was calculated.

The test system of data set [2] is cortical neurons. The data set is described as follows: Excitotoxicity protection in primary cortical neurons (MTT test). The data set is classed as cell-based, rat. As to conditions: etazolate 1 hour before toxic agents, 6-hour incubation. The procedure:
(§1) In this example, cerebellar granular neurons, cortical neurons and ventral spinal cord cells from rats were cultured according to methods known to those skilled in the art.
Wistar rat embryos aged 16 days were removed and the cortex dissected. After trypsination at 37° C. for 25 minutes, the cells were dissociated by trituration, then seeded in minimum essential medium supplemented with 10% horse serum, 10% fetal calf serum and 2 mM glutamine, at a density of 300,000 cells per cm^2. After 4 days of culture, half the medium was replaced with minimum essential medium supplemented with 5% horse serum and 2 mM glutamine. The same day, the antimitotic 5-fluoro-2-deoxyuridine (10 μM) was added. After 7 and 11 days of culture, half the medium was replaced with conditioned medium composed of MEM supplemented with 5% horse serum and 2 mM glutamine; prior to use this medium was passed overnight on a layer of cortical astrocytes. On day 14, the cells were treated with the inhibitor compound etazolate, 1 hour before adding the toxic agents 50 μM kainate or 20 μM N-methyl-D-aspartate in the presence of 10 μM D-serine. […] After a 6-hour incubation, toxicity was measured by the MTT test. The results were normalized to the untreated mean and analyzed statistically with a Wilcoxon test. […]
(§2) Toxicity was measured with the MTT test. […] Absorbance at 550 nm was measured and the percentage viability was calculated.

Data set [3] has as its system ventral spinal cord cells. Nature of the data set: Excitotoxicity protection in primary ventral spinal cord cells (MTT test). The data set is classed as cell-based, rat. As to conditions: 100 μM NMDA + 10 μM D-serine, 3-hour incubation. The procedure: as §1
Cells were isolated from 14-day-old Wistar rat embryos. On arrival, gestating rats were sacrificed by carbon dioxide intoxication.
The chain of embryos was removed and placed in a dish containing PBS.
The spinal cord of each embryo was dissected and the ventral cord was separated from the dorsal cords. The ventral cords were then trypsinized at 37° C. for 20 minutes. Trypsinization was stopped by addition of Leibovitz 15 medium, 20% horse serum, supplement N2 (1×), 20% glucose (3.2 mg/ml), 7.5% bicarbonate (1.8 mg/ml) and 2 mM L-glutamine. The cells were dissociated by trituration. Clumps of tissue were removed and the dissociated cells were then quantified by trypan blue staining. The cells were seeded at 250,000 cells per cm^2 in neurobasal medium containing 2% horse serum, supplement B27 (1×), and 2 mM glutamine. […] After a 3-hour incubation with NMDA/D-serine as toxic agent and a 1-hour incubation with kainate, toxicity was measured by the MTT test. The results were normalized to the untreated mean and analyzed statistically with a Wilcoxon test with p<0.05.
as §2

The test system of data set [4] is retinal explants from rd1 mice. Nature of the data set: Retinal explant cultures from rd1 mice, histopathology of photoreceptors. As to conditions: 2 μM etazolate, versus untreated explants. The data set is classed as cell-based. The method, then: This example describes the effects of a PDE4 inhibitor on retina of rd1 mice, which are characterized by a loss of visual cells starting two weeks after birth. For each etazolate concentration (0.02 μM, 0.2 μM, 2 μM and 20 μM), six retinal explants from rd1 mice were cultured for 21 days. The culture was started on postnatal day 7 in medium free of bovine fetal serum but containing etazolate at the indicated concentration. Six retinal explants from the same animals were used as controls for the treated explants. In this case, the explants were grown in culture medium alone or in culture medium containing the vehicle used for etazolate. For both conditions (control and treatment), the culture medium was changed every two days. After 21 days of culture, the explants were fixed, sectioned and labelled for histopathologic studies. Explants from untreated rd1 mice (postnatal day 28) lost most of their photoreceptors in culture, and the presence of an increase in photoreceptors was then detected by counting the remaining photoreceptors.

Data set [5] deals with T1, PBR (Homo sapiens, UniProt P30536).
T1 construct: endogenous in cells; host or cells: HeLa cells
T1 sequence (P30536 whole entry): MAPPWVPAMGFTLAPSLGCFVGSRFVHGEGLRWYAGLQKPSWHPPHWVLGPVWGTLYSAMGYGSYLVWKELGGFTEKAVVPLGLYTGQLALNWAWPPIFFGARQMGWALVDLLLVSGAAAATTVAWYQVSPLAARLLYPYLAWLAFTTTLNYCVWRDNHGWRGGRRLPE
The data set is described as follows: Mitochondrial-specific rhodamine 1,2,3 fluorescence in HeLa cells expressing the PBR. It counts as cell-based. The source says:
The PBR is situated between the inner and outer mitochondrial membrane. It forms part of the transition pore complex, which participates in regulating mitochondrial flux by opening the mitochondrial pore. There exist molecules which display high affinity for PBR, particularly Ro5-4864 and PK11195.
By monitoring mitochondrial-specific fluorescence of rhodamine 1,2,3, the effects of PBR-specific ligands and those of etazolate could be followed.

Data set [6] can be described thus: Escalating single oral dose study in healthy male volunteers: tolerability. It counts as in vivo, humans. The conditions noted are these: oral capsules, single doses 0.5-20 mg. The method, then:
(§3) In this study, increasing doses of etazolate (0.5, 1, 2, 5, 10 and 20 mg) were administered orally in the form of 0.5 and 5 mg capsules to different and sequential groups of eight young healthy male volunteers. This was a single-center, double-blind study in which two of the eight subjects received a placebo.
(§4) The following parameters were evaluated: clinical tolerability (adverse effects, clinical signs, changes in blood pressure or heart rate), electrocardiographic tolerability (recording of the ECG) and biological tolerability (hematology and blood biochemistry, urinalysis) for 24 hours after dosing. The product was assayed in plasma at different times before and after administration in each subject (0.25-0.50-1.00-1.50-2.00-3.00-4.00-5.00-6.00-8.00-10.00-12.00 and 24.00 hours). The product was also assayed in urine collected before and after administration (4, 4-8,8-12 and 12-24 hours).

Data set [7] can be described thus: Escalating single oral dose study in healthy male volunteers: plasma assays. The conditions noted are these: humans, at high doses. The data set is classed as in vivo. The procedure:
as §3, §4

The text below walks through data of patent publication US7872015B2, “Methods involving PDE4, compositions, and the screening thereof, for the treatment of degenerative ocular pathologies” (Exonhit Therapeutics SA, priority 2003, dated 2011).

Each structure is given as a SMILES string.

In the case of `CCOC(=O)c1cnc2c(cnn2CC)c1NN=C(C)C` [etazolate], the results for the “protective effect on kainate-induced toxicity” value in data set [1] (50 μM kainate) and in data set [2] (50 μM kainate) were 57% and 25%, respectively. For the same compound, the “protective effect on NMDA/serine-induced toxicity” value was determined as 60% in data set [1] (100 μM N-methyl-D-aspartate + 10 μM D-serine), 33% in data set [2] (20 μM N-methyl-D-aspartate + 10 μM D-serine) and 36% in data set [3]. In addition, the “preservation of photoreceptors (photoreceptor layer)” value in data set [4] (rd1 retinal explants cultured 21 days from postnatal day 7) is listed as “much better preserved”. Also, the “number of picnotic cells” value in data set [4] (rd1 retinal explants cultured 21 days) is recorded as “marked reduction”. Also, the “mitochondrial-specific fluorescence of rhodamine 1,2,3” value (from here on “mitochondrial-specific fluorescence”) in data set [5] is listed as “induced the same loss of fluorescence as the PBR-specific ligands”. Moreover, the side effects result in data set [6] is “did not cause any side effects”. Moreover, in data set [6] (24 hours after dosing), the “tolerability (clinical, electrocardiographic, biological)” value is given as “well tolerated”. For the same compound, in data set [7], the “absorption (plasma assays)” value is on record as “good”.

Consider `CN1C(=O)CN=C(c2ccc(Cl)cc2)c2cc(Cl)ccc21` [Ro5-4864], for which, in data set [5], the “mitochondrial-specific fluorescence” value is “loss of fluorescence”.

For `CCC(C)N(C)C(=O)c1cc2ccccc2c(-c2ccccc2Cl)n1` (stereo not shown) [PK11195], in data set [5], the “mitochondrial-specific fluorescence” value was “loss of fluorescence”.
